According to US8785483B2, “Methods for treating COPD” (The Board of Regents of the University of Texas System, priority 2010, dated 2014):

Experiments:
[1] = system: small airway epithelial cells (SAEC); assay: Cell viability (MTT) assay, CSE-induced cell death; assay type: cell-based, human; conditions: 24 h, with fidarestat (10 μM in FIG. 1 legend, 20 μM in method)
Procedure: FIG. 1. Inhibition of AR prevents cigarette smoke extract (CSE)-induced cell-death in small airway epithelial cells (SAEC). MTT assay was performed after incubating the cells for 24 h with different concentrations of CSE in absence and presence of 10 μM Fidarestat. Bars (Mean±SD; n=6) represent the absorbance at 570 nm corresponding to live cells. Primary human Small Airway Epithelial Cells (SAEC) obtained from Lonza (Walkersville, Md.) were normal human SAEC harvested from distal airspace of donor. The cells were cultured according to the supplier's instructions at 37° C. in humidified atmosphere containing 95% air and 5% CO2 in small airway epithelial basal medium (SABM) with supplements containing 52 μg/ml bovine pituitary extract, 0.5 ng/ml human recombinant epidermal growth factor (EGF), 0.5 μg/ml epinephrine, 1 μg/ml hydrocortisone, 10 μg/ml transferrin, 5 μg/ml insulin, 0.1 ng/ml retinoic acid (RA), 6.5 ng/ml triiodothyronine, 50 μg/ml Gentamicin/Amphotericin-B (GA-1000), and 50 μg/ml fatty acid-free bovine serum albumin (BSA). […] Absorbance was read at 570 nm using a 96-well ELISA plate reader.

ERK1/2 = assay: Western blot of ERK1/2 phosphorylation in airway epithelial monolayer; assay type: cell-based, human; conditions: ALI monolayer, AR inhibitor 24 h prior to IL-13
Procedure: FIG. 7. AR inhibition prevents IL-13-induced phosphorylation of JAK-1, ERK1/2 and STAT-6 in airway epithelial monolayer. The ciliated monolayer of airway cells at ALI was treated with AR inhibitor for 24 h and stimulated with IL-13 for different time periods as indicated. At the end of incubation, cells were lysed and cell lysate was subjected to western blotting using antibodies against phosphorylated and nonphosphorylated JAK-1, ERK1/2 and STAT-6 to analyze the activation of these signaling proteins. A representative blot is shown (n=4). #p<0.001 vs Control; *p<0.01 and **p<0.001 vs IL-13. For air-liquid interface (ALI) culture, SAEC were seeded at 8.5×10^4 cells/12-mm-diameter PET transparent insert with […] pores (12-well millicell culture insert; Millipore) and pre-coated with rat tail collagen type-1 (Sigma-Aldrich). The cells were grown submerged in the differentiation medium as described earlier by Zhen et al. (Am J Respir Cell Mol Biol 36: 244-253, 2007). […] Protein levels were determined using Bradford reagent (Biorad, Hercules, Calif.). […] The blots were then washed, exposed to HRP-conjugated secondary antibodies (1:5,000 dilution) for 1 h, and the antigen-antibody complex was detected by enhanced chemiluminescence (Amersham Pharmacia Biotech, Piscataway, N.J., USA). […]

In the case of `NC(=O)[C@@H]1C[C@]2(NC(=O)NC2=O)c2cc(F)ccc2O1` [fidarestat, (2S,4S)-2-aminoformyl-6-fluoro-spiro[chroman-4,4′-imidazolidine]-2′,5′-dione], the “cells alive after CSE” value ([1]; 12.5% CSE) is reported as “more than 95%”, the “cells alive after CSE” value ([1]; 50% CSE) is reported as > 85% and the “IL-13-induced phosphorylation of ERK1/2” value (ERK1/2) is reported as “decreased significantly”.
